According to PubChem BioAssay (NCI):
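Test compounds were applied to cells in 96-well plates for 48 hours at 5 doses. GI50 = concentration required for 50% inhibition of growth. TGI marks complete inhibition of growth.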

How the values were obtained:
Test in all cases: NCI anticancer screen, dose series, 48 h
786-0 renal = tested on: 786-0 renal
A498 renal = tested on: A498 renal
A549 NSCLC = tested on: A549 NSCLC
ACHN renal = tested on: ACHN renal
BT-549 breast = tested on: BT-549 breast
CAKI-1 renal = tested on: CAKI-1 renal
CCRF-CEM leukemia = tested on: CCRF-CEM leukemia
COLO 205 colon = tested on: COLO 205 colon
DU-145 prostate = tested on: DU-145 prostate
EKVX NSCLC = tested on: EKVX NSCLC
HCC-2998 colon = tested on: HCC-2998 colon
HCT-116 colon = tested on: HCT-116 colon
HCT-15 colon = tested on: HCT-15 colon
HL-60(TB) leukemia = tested on: HL-60(TB) leukemia
HOP-62 NSCLC = tested on: HOP-62 NSCLC
HOP-92 NSCLC = tested on: HOP-92 NSCLC
HS 578T breast = tested on: HS 578T breast
HT29 colon = tested on: HT29 colon
IGROV1 ovarian = tested on: IGROV1 ovarian
K-562 leukemia = tested on: K-562 leukemia
KM12 colon = tested on: KM12 colon
LOX IMVI melanoma = tested on: LOX IMVI melanoma
M14 melanoma = tested on: M14 melanoma
MALME-3M melanoma = tested on: MALME-3M melanoma
MCF7 breast = tested on: MCF7 breast
MDA-MB-231 breast = tested on: MDA-MB-231 breast
MDA-MB-435 = tested on: MDA-MB-435
MOLT-4 leukemia = tested on: MOLT-4 leukemia
NCI-H226 lung = tested on: NCI-H226 lung
NCI-H23 lung = tested on: NCI-H23 lung
NCI-H460 lung = tested on: NCI-H460 lung
NCI-H522 lung = tested on: NCI-H522 lung
NCI/ADR-RES ovarian = tested on: NCI/ADR-RES ovarian
OVCAR-3 ovarian = tested on: OVCAR-3 ovarian
OVCAR-4 ovarian = tested on: OVCAR-4 ovarian
OVCAR-5 ovarian = tested on: OVCAR-5 ovarian
OVCAR-8 ovarian = tested on: OVCAR-8 ovarian
PC-3 prostate = tested on: PC-3 prostate
RPMI-8226 leukemia = tested on: RPMI-8226 leukemia
RXF 393 renal = tested on: RXF 393 renal
SF-268 CNS = tested on: SF-268 CNS
SF-295 CNS = tested on: SF-295 CNS
SF-539 CNS = tested on: SF-539 CNS
SK-MEL-2 melanoma = tested on: SK-MEL-2 melanoma
SK-MEL-28 melanoma = tested on: SK-MEL-28 melanoma
SK-MEL-5 melanoma = tested on: SK-MEL-5 melanoma
SK-OV-3 ovarian = tested on: SK-OV-3 ovarian
SN12C renal = tested on: SN12C renal
SNB-19 CNS = tested on: SNB-19 CNS
SNB-75 CNS = tested on: SNB-75 CNS
SR leukemia = tested on: SR leukemia
SW-620 colon = tested on: SW-620 colon
T-47D breast = tested on: T-47D breast
TK-10 renal = tested on: TK-10 renal
U251 CNS = tested on: U251 CNS
UACC-257 melanoma = tested on: UACC-257 melanoma
UACC-62 melanoma = tested on: UACC-62 melanoma
UO-31 renal = tested on: UO-31 renal

What does the source list for `Cc1c2cnccc2c(C)c2c1c1cc(CO)ccc1n2C`?
GI50 (786-0 renal): 302 nM; TGI (786-0 renal): 2660 nM; GI50 (A498 renal): 30.5 nM; TGI (A498 renal): 0.169 µM; GI50 (A549 NSCLC): 330 nM; TGI (A549 NSCLC): 2070 nM; GI50 (ACHN renal): 66.5 nM; TGI (ACHN renal): 1160 nM; GI50 (BT-549 breast): 927 nM; TGI (BT-549 breast): 2280 nM; GI50 (CAKI-1 renal): 163 nM; TGI (CAKI-1 renal): 1.08 µM; GI50 (CCRF-CEM leukemia): 328 nM; TGI (CCRF-CEM leukemia): 2610 nM; GI50 (COLO 205 colon): 258 nM; TGI (COLO 205 colon): 1260 nM; GI50 (DU-145 prostate): 288 nM; TGI (DU-145 prostate): 1530 nM; GI50 (EKVX NSCLC): 325 nM; TGI (EKVX NSCLC): 1.29 µM; GI50 (HCC-2998 colon): 465 nM; TGI (HCC-2998 colon): 1.93 µM; GI50 (HCT-116 colon): 45.4 nM; TGI (HCT-116 colon): 651 nM; GI50 (HCT-15 colon): 217 nM; TGI (HCT-15 colon): 1310 nM; GI50 (HL-60(TB) leukemia): 408 nM; TGI (HL-60(TB) leukemia): 2.1 µM; GI50 (HOP-62 NSCLC): 211 nM; TGI (HOP-62 NSCLC): 2330 nM; GI50 (HOP-92 NSCLC): 382 nM; TGI (HOP-92 NSCLC): 2630 nM; GI50 (HS 578T breast): 521 nM; TGI (HS 578T breast): 3.13 µM; GI50 (HT29 colon): 257 nM; TGI (HT29 colon): 2.73 µM; GI50 (IGROV1 ovarian): 130 nM; TGI (IGROV1 ovarian): 1220 nM; GI50 (K-562 leukemia): 264 nM; TGI (K-562 leukemia): 1680 nM; GI50 (KM12 colon): 303 nM; TGI (KM12 colon): 1820 nM; GI50 (LOX IMVI melanoma): 255 nM; TGI (LOX IMVI melanoma): 1210 nM; GI50 (M14 melanoma): 298 nM; TGI (M14 melanoma): 1220 nM; GI50 (MALME-3M melanoma): 294 nM; TGI (MALME-3M melanoma): 1.18 µM; GI50 (MCF7 breast): 203 nM; TGI (MCF7 breast): 1.37 µM; GI50 (MDA-MB-231 breast): 348 nM; TGI (MDA-MB-231 breast): 1790 nM; GI50 (MDA-MB-435): 349 nM; TGI (MDA-MB-435): 1390 nM; GI50 (MOLT-4 leukemia): 286 nM; TGI (MOLT-4 leukemia): 2380 nM; GI50 (NCI-H226 lung): 109 nM; TGI (NCI-H226 lung): 570 nM; GI50 (NCI-H23 lung): 273 nM; TGI (NCI-H23 lung): 1340 nM; GI50 (NCI-H460 lung): 149 nM; TGI (NCI-H460 lung): 0.571 µM; GI50 (NCI-H522 lung): 350 nM; TGI (NCI-H522 lung): 1.91 µM; GI50 (NCI/ADR-RES ovarian): 187 nM; TGI (NCI/ADR-RES ovarian): 1930 nM; GI50 (OVCAR-3 ovarian): 295 nM; TGI (OVCAR-3 ovarian): 1.42 µM; GI50 (OVCAR-4 ovarian): 299 nM; TGI (OVCAR-4 ovarian): 1200 nM; GI50 (OVCAR-5 ovarian): 244 nM; TGI (OVCAR-5 ovarian): 1180 nM; GI50 (OVCAR-8 ovarian): 178 nM; TGI (OVCAR-8 ovarian): 2.45 µM; GI50 (PC-3 prostate): 367 nM; TGI (PC-3 prostate): 2140 nM; GI50 (RPMI-8226 leukemia): 260 nM; TGI (RPMI-8226 leukemia): 1.38 µM; GI50 (RXF 393 renal): 209 nM; TGI (RXF 393 renal): 1.04 µM; GI50 (SF-268 CNS): 268 nM; TGI (SF-268 CNS): 1.69 µM; GI50 (SF-295 CNS): 316 nM; TGI (SF-295 CNS): 1660 nM; GI50 (SF-539 CNS): 343 nM; TGI (SF-539 CNS): 1540 nM; GI50 (SK-MEL-2 melanoma): 455 nM; TGI (SK-MEL-2 melanoma): 2.01 µM; GI50 (SK-MEL-28 melanoma): 384 nM; TGI (SK-MEL-28 melanoma): 1560 nM; GI50 (SK-MEL-5 melanoma): 425 nM; TGI (SK-MEL-5 melanoma): 1.58 µM; GI50 (SK-OV-3 ovarian): 324 nM; TGI (SK-OV-3 ovarian): 1350 nM; GI50 (SN12C renal): 187 nM; TGI (SN12C renal): 1650 nM; GI50 (SNB-19 CNS): 299 nM; TGI (SNB-19 CNS): 2370 nM; GI50 (SNB-75 CNS): 434 nM; TGI (SNB-75 CNS): 1700 nM; GI50 (SR leukemia): 75.2 nM; GI50 (SW-620 colon): 116 nM; TGI (SW-620 colon): 1390 nM; GI50 (T-47D breast): 275 nM; TGI (T-47D breast): 3.14 µM; GI50 (TK-10 renal): 553 nM; TGI (TK-10 renal): 4.15 µM; GI50 (U251 CNS): 298 nM; TGI (U251 CNS): 1630 nM; GI50 (UACC-257 melanoma): 292 nM; TGI (UACC-257 melanoma): 1680 nM; GI50 (UACC-62 melanoma): 232 nM; TGI (UACC-62 melanoma): 1030 nM; GI50 (UO-31 renal): 255 nM; TGI (UO-31 renal): 1910 nM

What does the source list for `CNC(=O)N(C1=NCC(C)S1)c1ccc(C)c(C)c1` (stereo not drawn)?
TGI (786-0 renal): > 48800 nM; TGI (A498 renal): 17 µM; TGI (A549 NSCLC): > 100000 nM; TGI (ACHN renal): > 76500 nM; TGI (BT-549 breast): > 100000 nM; TGI (CAKI-1 renal): 20.6 µM; TGI (CCRF-CEM leukemia): > 62800 nM; TGI (COLO 205 colon): > 44600 nM; TGI (DU-145 prostate): > 100000 nM; TGI (EKVX NSCLC): 70.4 µM; TGI (HCC-2998 colon): 24.1 µM; TGI (HCT-116 colon): > 76800 nM; TGI (HCT-15 colon): > 54000 nM; TGI (HL-60(TB) leukemia): 4.1 µM; TGI (HOP-62 NSCLC): > 100000 nM; TGI (HOP-92 NSCLC): > 29500 nM; TGI (HS 578T breast): > 100 µM; TGI (HT29 colon): 12.7 µM; TGI (IGROV1 ovarian): > 100000 nM; TGI (K-562 leukemia): > 20100 nM; TGI (KM12 colon): > 55700 nM; TGI (LOX IMVI melanoma): > 48500 nM; TGI (M14 melanoma): > 42300 nM; TGI (MALME-3M melanoma): 55.2 µM; TGI (MCF7 breast): 26.6 µM; TGI (MDA-MB-231 breast): > 100000 nM; TGI (MDA-MB-435): 3490 nM; TGI (MOLT-4 leukemia): > 59200 nM; TGI (NCI-H226 lung): > 100000 nM; TGI (NCI-H23 lung): > 100000 nM; TGI (NCI-H460 lung): 42.6 µM; TGI (NCI-H522 lung): 17.1 µM; TGI (NCI/ADR-RES ovarian): > 20400 nM; TGI (OVCAR-3 ovarian): 8.4 µM; TGI (OVCAR-4 ovarian): > 100000 nM; TGI (OVCAR-5 ovarian): > 100000 nM; TGI (OVCAR-8 ovarian): 45.7 µM; TGI (PC-3 prostate): > 55000 nM; TGI (RPMI-8226 leukemia): 15.1 µM; TGI (RXF 393 renal): 8.31 µM; TGI (SF-268 CNS): 40.6 µM; TGI (SF-295 CNS): > 73600 nM; TGI (SF-539 CNS): > 25600 nM; TGI (SK-MEL-2 melanoma): 15.5 µM; TGI (SK-MEL-28 melanoma): > 92800 nM; TGI (SK-MEL-5 melanoma): 19.1 µM; TGI (SK-OV-3 ovarian): > 93000 nM; TGI (SN12C renal): > 87200 nM; TGI (SNB-19 CNS): > 100000 nM; TGI (SNB-75 CNS): > 24700 nM; TGI (SR leukemia): > 71.7 µM; TGI (SW-620 colon): > 100000 nM; TGI (T-47D breast): > 100 µM; TGI (TK-10 renal): > 68.2 µM; TGI (U251 CNS): > 36800 nM; TGI (UACC-257 melanoma): > 78100 nM; TGI (UACC-62 melanoma): > 100000 nM; TGI (UO-31 renal): > 78700 nM
